# Test: Clinical trial safety, ALKA, STARTRK-1, STARTRK-2, STARTRK-NG (interim, N=355)
# Details: for Balance disorder / Confusional state / Dizziness / Headache / Paresthesia: CNS metastases
# [1] = no prior CNS irradiation (N=48)
# [2] = among the 32 patients with hyperuricemic adverse reactions
# [3] = among the 36 patients with mood disorders
# [4] = among the 51 patients with sleep disturbances
# [5] = among the 96 patients with cognitive impairment
# [6] = among the 136 patients who experienced dizziness
# [7] = clinically relevant adverse reactions in ≤10% of patients
structure (smiles),measurement,setting,value
"CN1CCN(c2ccc(C(=O)Nc3n[nH]c4ccc(Cc5cc(F)cc(F)c5)cc34)c(NC3CCOCC3)c2)CC1 [Entrectinib, N-[5-(3,5-difluorobenzyl)-1H-indazol-3-yl]-4-(4-methyl-piperazin-1-yl)-2-(tetrahydro-pyran-4-ylamino)-benzamide]","CHF, median time to onset","12 patients with CHF, range: 11 days to 12 months",2 months
same,Congestive heart failure,355 patients,3.4%
same,"Congestive heart failure, Grade 3",355 patients,2.3%
same,"Hyperuricemia reported as adverse reactions with symptoms, as well as elevated uric acid levels",355 patients,9%
same,Increased ALT of any grade,355 patients,36%
same,Increased AST of any grade,355 patients,42%
same,Balance disorder,[1],4%
same,Confusional state,[1],2%
same,Dizziness,[1],31%
same,Headache,[1],13%
same,Paresthesia,[1],6%
same,Balance disorder,prior CNS irradiation (N=90),13%
same,Confusional state,prior CNS irradiation (N=90),11%
same,Dizziness,prior CNS irradiation (N=90),38%
same,Headache,prior CNS irradiation (N=90),21%
same,Paresthesia,prior CNS irradiation (N=90),20%
same,"Abdominal pain, All Grades",N = 355,16%
same,"Arthralgia, All Grades",N = 355,21%
same,"Ataxia, All Grades",N = 355,17%
same,"Back pain, All Grades",N = 355,12%
same,"Cognitive impairment, All Grades",N = 355,27%
same,"Constipation, All Grades",N = 355,46%
same,"Cough, All Grades",N = 355,24%
same,"Decreased appetite, All Grades",N = 355,13%
same,"Dehydration, All Grades",N = 355,10%
same,"Diarrhea, All Grades",N = 355,35%
same,"Dizziness, All Grades",N = 355,38%
same,"Dysesthesia, All Grades",N = 355,34%
same,"Dysgeusia, All Grades",N = 355,44%
same,"Dyspnea, All Grades",N = 355,30%
same,"Edema, All Grades",N = 355,40%
same,"Fatigue, All Grades",N = 355,48%
same,"Headache, All Grades",N = 355,18%
same,"Hypotension, All Grades",N = 355,18%
same,"Increased weight, All Grades",N = 355,25%
same,"Lung infection, All Grades",N = 355,10%
same,"Mood disorders, All Grades",N = 355,10%
same,"Muscular weakness, All Grades",N = 355,12%
same,"Myalgia, All Grades",N = 355,28%
same,"Nausea, All Grades",N = 355,34%
same,"Pain in extremity, All Grades",N = 355,11%
same,"Peripheral sensory neuropathy, All Grades",N = 355,18%
same,"Pyrexia, All Grades",N = 355,21%
same,"Rash, All Grades",N = 355,11%
same,"Sleep (sleep disturbances), All Grades",N = 355,14%
same,"Urinary tract infection, All Grades",N = 355,13%
same,"Vision disorders, All Grades",N = 355,21%
same,"Vomiting, All Grades",N = 355,24%
same,"Abdominal pain, Grade ≥3","N = 355, Grades 3-5",0.6%
same,"Arthralgia, Grade ≥3","N = 355, Grades 3-5",0.6%
same,"Ataxia, Grade ≥3","N = 355, Grades 3-5",0.8%
same,"Back pain, Grade ≥3","N = 355, Grades 3-5",1%
same,"Cognitive impairment, Grade ≥3","N = 355, Grades 3-5",4.5%
same,"Constipation, Grade ≥3","N = 355, Grades 3-5",0.6%
same,"Cough, Grade ≥3","N = 355, Grades 3-5",0.3%
same,"Decreased appetite, Grade ≥3","N = 355, Grades 3-5",0.3%
same,"Dehydration, Grade ≥3","N = 355, Grades 3-5",1.1%
same,"Diarrhea, Grade ≥3","N = 355, Grades 3-5",2.0%
same,"Dizziness, Grade ≥3","N = 355, Grades 3-5",0.8%
same,"Dysesthesia, Grade ≥3","N = 355, Grades 3-5",0.3%
same,"Dysgeusia, Grade ≥3","N = 355, Grades 3-5",0.3%
same,"Edema, Grade ≥3","N = 355, Grades 3-5",1.1%
same,"Fatigue, Grade ≥3","N = 355, Grades 3-5",5%
same,"Headache, Grade ≥3","N = 355, Grades 3-5",0.3%
same,"Hypotension, Grade ≥3","N = 355, Grades 3-5",2.8%
same,"Increased weight, Grade ≥3","N = 355, Grades 3-5",7%
same,"Mood disorders, Grade ≥3","N = 355, Grades 3-5",0.6%
same,"Muscular weakness, Grade ≥3","N = 355, Grades 3-5",0.8%
same,"Myalgia, Grade ≥3","N = 355, Grades 3-5",1.1%
same,"Nausea, Grade ≥3","N = 355, Grades 3-5",0.3%
same,"Pain in extremity, Grade ≥3","N = 355, Grades 3-5",0.3%
same,"Peripheral sensory neuropathy, Grade ≥3","N = 355, Grades 3-5",1.1%
same,"Pyrexia, Grade ≥3","N = 355, Grades 3-5",0.8%
same,"Rash, Grade ≥3","N = 355, Grades 3-5",0.8%
same,"Sleep (sleep disturbances), Grade ≥3","N = 355, Grades 3-5",0.6%
same,"Urinary tract infection, Grade ≥3","N = 355, Grades 3-5",2.3%
same,"Vision disorders, Grade ≥3","N = 355, Grades 3-5",0.8%
same,"Vomiting, Grade ≥3","N = 355, Grades 3-5",0.8%
same,CHF resolved following interruption or discontinuation and medical management,among the 12 patients with CHF,50%
same,entrectinib discontinued due to CHF,among the 12 patients with CHF,17%
same,entrectinib interrupted due to CHF,among the 12 patients with CHF,50%
same,Dose interruption due to hyperuricemia,[2],6%
same,Dose reduction due to hyperuricemia,[2],6%
same,Required urate-lowering medication,[2],34%
same,Discontinuation due to mood disorders,[3],no patients discontinued
same,Dose interruption due to mood disorders,[3],6%
same,Dose reduction due to mood disorders,[3],6%
same,Discontinuation due to sleep disturbances,[4],no patients discontinued
same,Dose reduction due to sleep disturbances,[4],6%
same,Discontinued entrectinib due to cognitive adverse reactions,[5],1%
same,Dose interruption due to cognitive adverse reactions,[5],18%
same,Dose reduction due to cognitive adverse reactions,[5],13%
same,Discontinued entrectinib due to dizziness,[6],0.7%
same,Dose interruption due to dizziness,[6],7%
same,Dose reduction due to dizziness,[6],Ten
same,Grade 3 dizziness,[6],2.2%
same,Dysphagia,[7],10%
same,Fall,[7],8%
same,Fractures,[7],6%
same,Hypoxia,[7],4.2%
same,Pleural effusion,[7],8%
same,Pulmonary embolism,[7],3.9%
same,QT prolongation,[7],3.1%
same,Syncope,[7],3.9%
same,Increased AST or ALT leading to dose interruptions,first value of 'respectively',0.8%
same,Cognitive impairment: amnesia,"human, in vivo",2.5%
same,Cognitive impairment: aphasia,"human, in vivo",2.3%
same,Cognitive impairment: cognitive disorders,"human, in vivo",8%
same,Cognitive impairment: confusional state,"human, in vivo",7%
same,Cognitive impairment: delirium,"human, in vivo",0.8%
same,Cognitive impairment: disturbance in attention,"human, in vivo",4.8%
same,Cognitive impairment: hallucinations,"human, in vivo",1.1%
same,Cognitive impairment: memory impairment,"human, in vivo",3.7%
